According to patent publication US9896435B2, “N-pyrrolidinyl,N′-pyrazolyl-urea, thiourea, guanidine and cyanoguanidine compounds as TrkA kinase inhibitors” (Array BioPharma Inc., priority 2012, dated 2018):

What was measured:
Assay in all cases: KinaseProfiler off-target kinase profiling
Format in all cases: biochemical
Conditions in all cases: 10 μM, ATP near Km
Fms = Fms (Homo sapiens (Human), UniProt P07333)
Protocol: (§1) Two representative compounds (Example 2, 14) of the invention were tested for off-target kinase activity at a concentration of 10 μM by Millipore, Inc. in their KinaseProfiler™ service against all the kinases available in their full kinase panel. These compounds were run in duplicate at a concentration of ATP near the Km for each individual kinase according to Millipore's specifications. The results are shown in Table B. Data are reported as percent of control (POC) and are the average of the two replicates.

MARK1 = MARK1 (Homo sapiens (Human), UniProt Q9P0L2)
Protocol: as §1

MSSK1 = MSSK1 (Homo sapiens (Human), UniProt Q9UPE1)
Protocol: as §1

HIPK3 = HIPK3 (Homo sapiens (Human), UniProt Q9H422)
Protocol: as §1

Rsk1 = Rsk1 (Homo sapiens (Human), UniProt Q15418)
Protocol: as §1

MuSK = MuSK (Homo sapiens (Human), UniProt O15146)
Sequence of MuSK (O15146 24-869): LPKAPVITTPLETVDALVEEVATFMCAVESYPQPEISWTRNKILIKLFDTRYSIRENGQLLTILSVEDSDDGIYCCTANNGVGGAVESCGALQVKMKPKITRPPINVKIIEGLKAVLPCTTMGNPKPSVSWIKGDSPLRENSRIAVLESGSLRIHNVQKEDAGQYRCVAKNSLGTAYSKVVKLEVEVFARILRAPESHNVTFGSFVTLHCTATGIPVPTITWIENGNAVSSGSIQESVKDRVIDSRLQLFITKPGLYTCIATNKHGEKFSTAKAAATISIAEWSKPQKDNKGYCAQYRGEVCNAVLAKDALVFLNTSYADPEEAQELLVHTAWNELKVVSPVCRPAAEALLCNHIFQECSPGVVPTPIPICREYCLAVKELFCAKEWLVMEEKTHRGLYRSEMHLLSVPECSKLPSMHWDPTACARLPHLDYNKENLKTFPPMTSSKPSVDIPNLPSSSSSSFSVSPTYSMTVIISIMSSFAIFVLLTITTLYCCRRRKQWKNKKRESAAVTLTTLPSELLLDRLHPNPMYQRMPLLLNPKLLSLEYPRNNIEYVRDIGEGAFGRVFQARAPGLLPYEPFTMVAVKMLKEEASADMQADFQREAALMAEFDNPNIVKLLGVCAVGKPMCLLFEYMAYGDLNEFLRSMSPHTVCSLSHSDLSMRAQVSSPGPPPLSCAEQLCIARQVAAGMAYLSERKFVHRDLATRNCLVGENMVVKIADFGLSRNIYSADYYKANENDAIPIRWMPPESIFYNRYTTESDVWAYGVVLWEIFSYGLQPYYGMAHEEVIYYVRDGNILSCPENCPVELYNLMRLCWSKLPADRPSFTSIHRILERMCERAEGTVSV
Protocol: as §1

CDK9/cyclinT1 = CDK9/cyclinT1 (Homo sapiens (Human), UniProt P50750)
Protocol: as §1

PRK2 = PRK2 (Homo sapiens (Human), UniProt Q16513)
Protocol: as §1

CDK2/cyclinA = CDK2/cyclinA (Homo sapiens (Human), UniProt P24941)
Protocol: as §1

PRKG1alpha = PRKG1alpha (Homo sapiens (Human), UniProt Q13976)
Protocol: as §1

Pim-1 = Pim-1 (Homo sapiens (Human), UniProt P11309)
Protocol: as §1

Met = Met (Homo sapiens (Human), UniProt P08581)
Protocol: as §1

DDR2 = DDR2 (Homo sapiens (Human), UniProt Q16832)
Sequence of DDR2 (Q16832 22-855): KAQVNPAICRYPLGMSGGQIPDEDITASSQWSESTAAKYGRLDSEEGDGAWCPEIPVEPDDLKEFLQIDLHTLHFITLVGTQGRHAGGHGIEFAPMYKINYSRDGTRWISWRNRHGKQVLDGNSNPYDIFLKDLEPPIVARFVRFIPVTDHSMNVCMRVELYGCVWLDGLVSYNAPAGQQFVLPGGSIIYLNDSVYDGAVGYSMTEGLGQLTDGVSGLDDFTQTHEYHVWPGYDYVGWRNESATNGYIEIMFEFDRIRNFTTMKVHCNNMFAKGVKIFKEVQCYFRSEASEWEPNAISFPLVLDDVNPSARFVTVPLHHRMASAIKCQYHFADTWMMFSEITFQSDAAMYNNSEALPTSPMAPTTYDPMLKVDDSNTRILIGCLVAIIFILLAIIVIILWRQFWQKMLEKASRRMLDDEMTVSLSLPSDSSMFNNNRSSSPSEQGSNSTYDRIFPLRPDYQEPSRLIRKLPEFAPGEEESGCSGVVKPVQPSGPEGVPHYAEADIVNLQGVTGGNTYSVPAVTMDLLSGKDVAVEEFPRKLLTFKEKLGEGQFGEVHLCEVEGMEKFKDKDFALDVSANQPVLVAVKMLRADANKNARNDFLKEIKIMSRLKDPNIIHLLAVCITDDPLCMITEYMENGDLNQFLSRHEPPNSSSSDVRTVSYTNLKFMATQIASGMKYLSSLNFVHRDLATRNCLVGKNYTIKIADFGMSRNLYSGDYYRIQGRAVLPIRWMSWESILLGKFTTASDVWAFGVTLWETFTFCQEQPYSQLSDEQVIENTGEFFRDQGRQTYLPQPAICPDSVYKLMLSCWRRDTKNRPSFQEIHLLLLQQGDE
Protocol: as §1

FGFR1 = FGFR1 (Homo sapiens (Human), UniProt P11362)
Sequence of FGFR1 (P11362 22-822): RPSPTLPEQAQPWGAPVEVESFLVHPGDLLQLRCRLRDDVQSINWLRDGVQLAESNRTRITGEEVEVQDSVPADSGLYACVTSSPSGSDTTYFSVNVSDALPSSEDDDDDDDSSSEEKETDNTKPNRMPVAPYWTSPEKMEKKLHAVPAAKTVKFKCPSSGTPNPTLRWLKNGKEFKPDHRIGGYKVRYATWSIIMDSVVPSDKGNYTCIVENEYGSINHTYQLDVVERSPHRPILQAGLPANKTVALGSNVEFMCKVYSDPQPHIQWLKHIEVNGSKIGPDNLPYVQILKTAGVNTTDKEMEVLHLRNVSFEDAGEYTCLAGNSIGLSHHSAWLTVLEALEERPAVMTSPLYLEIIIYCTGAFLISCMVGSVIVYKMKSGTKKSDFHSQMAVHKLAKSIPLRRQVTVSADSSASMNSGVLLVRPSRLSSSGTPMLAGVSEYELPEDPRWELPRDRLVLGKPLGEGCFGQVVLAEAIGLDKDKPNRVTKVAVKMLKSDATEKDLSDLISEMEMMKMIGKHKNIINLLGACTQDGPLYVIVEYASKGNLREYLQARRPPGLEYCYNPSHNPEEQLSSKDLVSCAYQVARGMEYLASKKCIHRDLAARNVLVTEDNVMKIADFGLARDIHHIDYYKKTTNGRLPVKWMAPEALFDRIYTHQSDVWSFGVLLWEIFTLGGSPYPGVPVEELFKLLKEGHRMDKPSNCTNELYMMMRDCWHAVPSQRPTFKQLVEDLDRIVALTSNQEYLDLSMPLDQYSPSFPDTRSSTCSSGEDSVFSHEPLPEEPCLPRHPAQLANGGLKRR
Protocol: as §1

MAP3K5 = MAP3K5 (Homo sapiens (Human), UniProt Q99683)
Protocol: as §1

MLK1 = MLK1 (Homo sapiens (Human), UniProt P80192)
Protocol: as §1

TrkB = TrkB (Homo sapiens (Human), UniProt Q16620)
Protocol: as §1

PhKgamma2 = PhKgamma2 (Homo sapiens (Human), UniProt P15735)
Sequence of PhKgamma2 (P15735 whole entry): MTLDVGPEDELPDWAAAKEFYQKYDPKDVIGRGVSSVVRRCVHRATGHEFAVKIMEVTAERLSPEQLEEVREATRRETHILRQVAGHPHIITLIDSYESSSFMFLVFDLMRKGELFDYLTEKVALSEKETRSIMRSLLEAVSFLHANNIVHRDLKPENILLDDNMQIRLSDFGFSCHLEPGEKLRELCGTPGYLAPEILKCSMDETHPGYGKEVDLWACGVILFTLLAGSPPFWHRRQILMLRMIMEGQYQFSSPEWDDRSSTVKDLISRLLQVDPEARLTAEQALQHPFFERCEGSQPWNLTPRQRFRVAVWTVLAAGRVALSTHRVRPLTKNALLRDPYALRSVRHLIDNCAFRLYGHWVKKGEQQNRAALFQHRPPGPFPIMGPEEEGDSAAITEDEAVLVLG
Protocol: as §1

Flt4 = Flt4 (Homo sapiens (Human), UniProt P35916)
Protocol: as §1

EphA1 = EphA1 (Homo sapiens (Human), UniProt P21709)
Protocol: as §1

IRAK1 = IRAK1 (Homo sapiens (Human), UniProt P51617)
Protocol: as §1

ZAP-70 = ZAP-70 (Homo sapiens (Human), UniProt P43403)
Protocol: as §1

MELK = MELK (Homo sapiens (Human), UniProt Q14680)
Protocol: as §1

MAP4K2 = MAP4K2 (Homo sapiens (Human), UniProt Q12851)
Protocol: as §1

MARK2 = MARK2 (Homo sapiens (Human), UniProt Q7KZI7)
Protocol: as §1

Rse = Rse (Homo sapiens (Human), UniProt Q06418)
Protocol: as §1

IGF-1R Activated = IGF-1R Activated (Homo sapiens (Human), UniProt P08069)
Protocol: as §1

PKCalpha = PKCalpha (Homo sapiens (Human), UniProt P17252)
Protocol: as §1

CHK1 = CHK1 (Homo sapiens (Human), UniProt O14757)
Protocol: as §1

CK1delta = CK1delta (Homo sapiens (Human), UniProt P48730)
Protocol: as §1

CAMK1d = CAMK1d (Homo sapiens (Human), UniProt Q8IU85)
Protocol: as §1

CDK3/cyclinE = CDK3/cyclinE (Homo sapiens (Human), UniProt Q00526)
Protocol: as §1

Bmx = Bmx (Homo sapiens (Human), UniProt P51813)
Protocol: as §1

EphA8 = EphA8 (Homo sapiens (Human), UniProt P29322)
Protocol: as §1

PKCzeta = PKCzeta (Homo sapiens (Human), UniProt Q05513)
Sequence of PKCzeta (Q05513 whole entry): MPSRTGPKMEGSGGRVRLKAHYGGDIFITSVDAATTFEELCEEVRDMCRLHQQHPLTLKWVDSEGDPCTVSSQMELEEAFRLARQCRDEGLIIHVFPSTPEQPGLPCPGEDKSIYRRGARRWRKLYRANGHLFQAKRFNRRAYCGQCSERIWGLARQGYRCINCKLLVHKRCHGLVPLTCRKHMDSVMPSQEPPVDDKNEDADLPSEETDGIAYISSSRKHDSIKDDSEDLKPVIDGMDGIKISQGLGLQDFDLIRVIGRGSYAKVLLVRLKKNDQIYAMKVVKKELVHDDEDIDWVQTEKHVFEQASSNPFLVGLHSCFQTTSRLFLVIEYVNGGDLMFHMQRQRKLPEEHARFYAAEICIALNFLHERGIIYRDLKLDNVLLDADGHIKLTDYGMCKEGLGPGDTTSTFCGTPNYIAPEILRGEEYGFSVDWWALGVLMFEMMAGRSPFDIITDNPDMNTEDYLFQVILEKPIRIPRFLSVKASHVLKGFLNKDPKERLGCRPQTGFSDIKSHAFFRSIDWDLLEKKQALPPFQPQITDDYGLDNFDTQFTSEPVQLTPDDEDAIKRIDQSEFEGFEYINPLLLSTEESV
Protocol: as §1

MST3 = MST3 (Homo sapiens (Human), UniProt Q9Y6E0)
Protocol: as §1

WNK3 = WNK3 (Homo sapiens (Human), UniProt Q9BYP7)
Protocol: as §1

FGFR4 = FGFR4 (Homo sapiens (Human), UniProt P22455)
Sequence of FGFR4 (P22455 22-802): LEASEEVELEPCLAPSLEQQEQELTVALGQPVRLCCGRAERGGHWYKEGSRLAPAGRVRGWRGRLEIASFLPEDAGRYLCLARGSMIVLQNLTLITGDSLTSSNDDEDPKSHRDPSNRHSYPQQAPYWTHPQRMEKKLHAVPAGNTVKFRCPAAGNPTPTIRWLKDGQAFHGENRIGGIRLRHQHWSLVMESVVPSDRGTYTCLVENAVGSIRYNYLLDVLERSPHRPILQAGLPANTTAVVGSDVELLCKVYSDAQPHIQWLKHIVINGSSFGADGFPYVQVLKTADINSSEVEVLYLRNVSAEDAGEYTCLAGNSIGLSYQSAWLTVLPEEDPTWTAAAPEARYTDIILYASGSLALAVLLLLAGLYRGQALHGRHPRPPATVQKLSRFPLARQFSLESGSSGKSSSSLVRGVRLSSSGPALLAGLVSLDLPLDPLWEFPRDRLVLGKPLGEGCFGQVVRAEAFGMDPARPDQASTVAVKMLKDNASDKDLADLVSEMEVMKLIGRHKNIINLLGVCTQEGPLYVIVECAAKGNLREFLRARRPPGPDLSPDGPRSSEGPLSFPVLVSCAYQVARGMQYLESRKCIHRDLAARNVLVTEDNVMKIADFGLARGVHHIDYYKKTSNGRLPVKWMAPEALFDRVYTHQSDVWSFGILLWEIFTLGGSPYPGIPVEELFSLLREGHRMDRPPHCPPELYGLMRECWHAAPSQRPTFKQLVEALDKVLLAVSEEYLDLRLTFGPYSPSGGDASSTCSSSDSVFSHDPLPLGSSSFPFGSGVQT
Protocol: as §1

CAMK4 = CAMK4 (Homo sapiens (Human), UniProt Q16566)
Protocol: as §1

CHK2 = CHK2 (Homo sapiens (Human), UniProt O96017)
Protocol: as §1

Structure (SMILES)	Avg POC (Fms)	Avg POC (MARK1)	Avg POC (MSSK1)	Avg POC (HIPK3)	Avg POC (Rsk1)	Avg POC (MuSK)	Avg POC (CDK9/cyclinT1)	Avg POC (PRK2)	Avg POC (CDK2/cyclinA)	Avg POC (PRKG1alpha)	Avg POC (Pim-1)	Avg POC (Met)	Avg POC (DDR2)	Avg POC (FGFR1)	Avg POC (MAP3K5)	Avg POC (MLK1)	Avg POC (TrkB)	Avg POC (PhKgamma2)	Avg POC (Flt4)	Avg POC (EphA1)	further results
COCCN1C[C@@H](NC(=O)Nc2c(C)c(-c3ccnc(C)c3)nn2-c2ccccc2)[C@H](c2ccc(F)c(F)c2)C1 [Example 2, 1-((3S,4R)-4-(3,4-difluorophenyl)-1-(2-methoxyethyl)pyrrolidin-3-yl)-3-(4-methyl-3-(2-methylpyridin-4-yl)-1-phenyl-1H-pyrazol-5-yl)urea]	101.5 POC	97.5 POC	118 POC	99.5 POC	111 POC	103.5 POC	104 POC	105 POC	111 POC	108 POC	99.5 POC	106 POC	100.5 POC	106.5 POC	97.5 POC	103.5 POC	1.5 POC	90 POC	95 POC	97 POC	Avg POC (IRAK1): 112.5 POC; Avg POC (ZAP-70): 93 POC; Avg POC (MELK): 110 POC; Avg POC (MAP4K2): 105.5 POC; Avg POC (MARK2): 90 POC; Avg POC (Rse): 96 POC; Avg POC (IGF-1R Activated): 102 POC; Avg POC (PKCalpha): 96 POC; Avg POC (CHK1): 114.5 POC; Avg POC (CK1delta): 108 POC; Avg POC (CAMK1d): 100 POC; Avg POC (CDK3/cyclinE): 98 POC; Avg POC (Bmx): 115.5 POC; Avg POC (EphA8): 104.5 POC; Avg POC (PKCzeta): 100 POC; Avg POC (MST3): 101 POC; Avg POC (WNK3): 99 POC; Avg POC (FGFR4): 105.5 POC; Avg POC (CAMK4): 97.5 POC; Avg POC (CHK2): 101 POC
COCCN1C[C@@H](NC(=O)Nc2c(C)c(-c3cnc(C)nc3)nn2-c2ccccc2)[C@H](c2cc(F)cc(F)c2)C1 [Example 14, 1-((3S,4R)-4-(3,5-difluorophenyl)-1-(2-methoxyethyl)pyrrolidin-3-yl)-3-(4-methyl-3-(2-methylpyrimidin-5-yl)-1-phenyl-1H-pyrazol-5-yl)urea]	76 POC	98 POC	109 POC	89 POC	111.5 POC	98.5 POC	104 POC	106.5 POC	113.5 POC	100.5 POC	103.5 POC	96.5 POC	96 POC	101.5 POC	104 POC	102 POC	4.5 POC	88 POC	92.5 POC	99 POC	Avg POC (IRAK1): 108.5 POC; Avg POC (ZAP-70): 101 POC; Avg POC (MELK): 111.5 POC; Avg POC (MAP4K2): 99.5 POC; Avg POC (MARK2): 99.5 POC; Avg POC (Rse): 96.5 POC; Avg POC (IGF-1R Activated): 106 POC; Avg POC (PKCalpha): 93 POC; Avg POC (CHK1): 104.5 POC; Avg POC (CK1delta): 108.5 POC; Avg POC (CAMK1d): 103.5 POC; Avg POC (CDK3/cyclinE): 100.5 POC; Avg POC (Bmx): 105.5 POC; Avg POC (EphA8): 104.5 POC; Avg POC (PKCzeta): 99.5 POC; Avg POC (MST3): 105.5 POC; Avg POC (WNK3): 96 POC; Avg POC (FGFR4): 110 POC; Avg POC (CAMK4): 83.5 POC; Avg POC (CHK2): 97.5 POC
